Measured values as given in patent US8338422B2, “Indolin-2-ones and aza-indolin-2-ones” (Janssen Pharmaceutica NV, priority 2007, dated 2012).
Values joined by “and” are separate entries in the source; they are usually repeats but may differ in a detail not shown here. Equal entries are not always repeated.

Legend:
Type in all cases: biochemical
[1] = molecular target: GSK3β (h) (Homo sapiens, UniProt P49841); assay: GSK-3β human kinase assay (SPA); settings: for IC50: read-out: GSK3B pIC50 (converted)
Chain of GSK3β (h) (P49841 whole entry): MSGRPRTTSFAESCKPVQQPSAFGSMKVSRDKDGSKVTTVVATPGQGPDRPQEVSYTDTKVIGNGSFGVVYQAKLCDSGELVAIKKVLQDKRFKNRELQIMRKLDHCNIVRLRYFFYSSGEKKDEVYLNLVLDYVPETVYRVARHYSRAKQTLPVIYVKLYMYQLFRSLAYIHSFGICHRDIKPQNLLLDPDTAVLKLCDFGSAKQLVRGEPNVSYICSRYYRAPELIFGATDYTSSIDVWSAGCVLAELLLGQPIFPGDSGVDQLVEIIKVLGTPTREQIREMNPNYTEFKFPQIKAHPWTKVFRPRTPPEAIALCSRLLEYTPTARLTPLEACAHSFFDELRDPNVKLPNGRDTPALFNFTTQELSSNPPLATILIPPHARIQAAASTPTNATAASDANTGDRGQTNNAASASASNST
Procedure: (§1) The in vitro inhibition of a panel of kinases was assessed using either the scintillation proximity assay (SPA) as described by Cook, N. D. et al., Advances in Experimental Medicine and Biology (1991), 36; p. 525-528; or the Fluorescence Resonance Energy Transfer (FRET) technology as described by Rodems, S. M. et al., Assay Drug Develop. Technol. (2002), 1; p. 9-19.
(§2) In the SPA technology the activity of the kinase of interest is measured using an appropriate biotinylated substrate that is incubated with the aforementioned kinase protein in the presence of (^33P) radiolabeled ATP. (^33P) Phosporylation of the substrate is subsequently measured through binding of the phosphorylated substrate to streptavidine coated beads that are based on the scintillant poly(vinyl toluene) (PVT-Beads). The scintillation intensity is detected by imaging on Leadseeker.
(§3) All kinases are pre-diluted to a 10× working concentration prior to addition into the assay. The composition of the dilution buffer for each kinase is detailed below.
In a final reaction volume of 30 μl, GSK3β (h) (1 μg/ml) is incubated with 25 mM Tris pH 7.4, 10 mM MgCl2, 1 mM DTT, 1 μM peptide Biotin-KRREILSRRPSYR-OH, 1 μM ATP and 2 nM [γ-^33P-ATP] (6.0 μCi/ml). After incubation of 60 minutes at room temperature, the reaction is stopped by addition of […] of stop solution containing 8.7 mM EDTA, BSA 0.17%, 0.17% Triton X-100, 6.25 mg/ml SPA beads (GE-healthcare). The plate is centriguged and read for Scintillation imaging on Leadseeker.

[2] = molecular target: AuroraB (h) (Homo sapiens, UniProt Q96GD4); assay: Aurora-B human kinase assay (SPA); settings: for IC50: read-out: AuroraB pIC50 (converted)
Chain of AuroraB (h) (Q96GD4 whole entry): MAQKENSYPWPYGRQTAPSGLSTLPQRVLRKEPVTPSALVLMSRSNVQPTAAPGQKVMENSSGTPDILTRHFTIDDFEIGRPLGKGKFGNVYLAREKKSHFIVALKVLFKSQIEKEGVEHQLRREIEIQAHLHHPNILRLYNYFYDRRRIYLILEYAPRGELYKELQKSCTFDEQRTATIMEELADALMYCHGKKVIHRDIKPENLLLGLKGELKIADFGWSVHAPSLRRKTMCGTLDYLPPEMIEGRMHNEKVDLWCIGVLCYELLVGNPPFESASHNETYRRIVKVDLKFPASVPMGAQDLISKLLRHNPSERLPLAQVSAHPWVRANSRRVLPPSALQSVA
Procedure: as §1, §2, §3
In a final reaction volume of 30 μl, AuroraB (h) (0.5 μg/ml) is incubated with 60 mM Hepes pH 7.5, 3 mM MgCl2, 3 mM MnCl2, 3 μM Na3VO4, 0.05 mg/ml PEG, 2 mM DTT, 3 μM Biotin-[…]-OH, 0.5 μM ATP and 2.2 nM [γ-^33P-ATP] (6.8 μCi/ml). After incubation of 60 minutes at room temperature, the reaction is stopped by addition of 40 μL of stop solution containing 8.7 mM EDTA, BSA 0.17%, 0.17% Triton X-100, 5 mg/ml SPA beads (GE-healthcare). The plate is centriguged and read for Scintillation imaging on Leadseeker.

[3] = molecular target: PLK4 (h) (Homo sapiens, UniProt O00444); assay: PLK-4 human kinase assay (SPA); settings: for IC50: read-out: PLK4 pIC50 (converted)
Chain of PLK4 (h) (O00444 whole entry): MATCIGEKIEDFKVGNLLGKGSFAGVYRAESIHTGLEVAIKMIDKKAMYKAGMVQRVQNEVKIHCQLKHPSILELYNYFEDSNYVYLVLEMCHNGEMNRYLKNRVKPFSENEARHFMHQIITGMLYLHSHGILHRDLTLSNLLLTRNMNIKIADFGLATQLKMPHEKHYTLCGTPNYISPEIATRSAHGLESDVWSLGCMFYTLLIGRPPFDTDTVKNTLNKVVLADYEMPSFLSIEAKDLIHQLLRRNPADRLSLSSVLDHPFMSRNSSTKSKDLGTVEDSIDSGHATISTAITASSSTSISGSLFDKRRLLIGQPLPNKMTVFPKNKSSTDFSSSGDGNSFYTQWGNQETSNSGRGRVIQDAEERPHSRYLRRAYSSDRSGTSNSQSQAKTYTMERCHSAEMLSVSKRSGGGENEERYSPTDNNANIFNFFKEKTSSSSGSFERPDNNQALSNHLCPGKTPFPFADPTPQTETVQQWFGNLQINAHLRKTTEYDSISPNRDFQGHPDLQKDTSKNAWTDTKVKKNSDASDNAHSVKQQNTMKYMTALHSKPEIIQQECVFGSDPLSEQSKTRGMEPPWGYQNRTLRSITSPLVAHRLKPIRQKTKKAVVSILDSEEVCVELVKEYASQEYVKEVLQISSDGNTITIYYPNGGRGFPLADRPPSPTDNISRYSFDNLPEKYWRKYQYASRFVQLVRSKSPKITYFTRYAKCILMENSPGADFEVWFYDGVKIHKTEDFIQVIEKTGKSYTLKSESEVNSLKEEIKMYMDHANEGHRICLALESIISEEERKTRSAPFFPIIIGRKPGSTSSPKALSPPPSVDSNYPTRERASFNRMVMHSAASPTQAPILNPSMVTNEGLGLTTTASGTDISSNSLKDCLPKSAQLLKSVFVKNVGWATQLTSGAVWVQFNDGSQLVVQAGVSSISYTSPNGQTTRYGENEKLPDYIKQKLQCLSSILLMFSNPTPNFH
Procedure: as §1, §2, §3
In a final reaction volume of 30 μl PLK4 (h) (19 μg/ml) is incubated with 50 mM Hepes pH 8.0, 10 mM MgCl2, 50 mM NaCl, 1 mM NaF, 1 mM DTT, 10 μM of peptide Biotin-RPRGQRDSSYYWE-OH, 1 μM ATP and 2 nM [γ-^33P-ATP] (6.0 μCi/ml). After incubation of 60 minutes at room temperature, the reaction is stopped by addition of 40 μl, of stop solution containing 8.7 mM EDTA, BSA 0.17%, 0.17% Triton X-100, 1.7 mg/ml SPA beads (GE-healthcare). The plate is centriguged and read for Scintillation imaging on Leadseeker.

[4] = molecular target: CDK1/CyclinB (h) (Homo sapiens, UniProt P06493); assay: CDK1/CyclinB human kinase assay (FRET); settings: for IC50: read-out: CDK1 pIC50 (converted)
Chain of CDK1/CyclinB (h) (P06493 whole entry): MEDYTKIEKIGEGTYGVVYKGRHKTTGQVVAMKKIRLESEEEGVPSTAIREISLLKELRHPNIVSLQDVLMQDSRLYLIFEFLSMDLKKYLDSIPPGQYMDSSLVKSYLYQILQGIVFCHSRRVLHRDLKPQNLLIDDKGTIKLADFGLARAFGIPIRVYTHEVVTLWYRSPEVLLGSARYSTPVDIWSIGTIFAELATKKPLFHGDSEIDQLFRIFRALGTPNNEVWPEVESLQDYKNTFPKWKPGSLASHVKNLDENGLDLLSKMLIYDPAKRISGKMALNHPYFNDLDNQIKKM
Chain of CDK1/CyclinB (h) (P14635 whole entry partner): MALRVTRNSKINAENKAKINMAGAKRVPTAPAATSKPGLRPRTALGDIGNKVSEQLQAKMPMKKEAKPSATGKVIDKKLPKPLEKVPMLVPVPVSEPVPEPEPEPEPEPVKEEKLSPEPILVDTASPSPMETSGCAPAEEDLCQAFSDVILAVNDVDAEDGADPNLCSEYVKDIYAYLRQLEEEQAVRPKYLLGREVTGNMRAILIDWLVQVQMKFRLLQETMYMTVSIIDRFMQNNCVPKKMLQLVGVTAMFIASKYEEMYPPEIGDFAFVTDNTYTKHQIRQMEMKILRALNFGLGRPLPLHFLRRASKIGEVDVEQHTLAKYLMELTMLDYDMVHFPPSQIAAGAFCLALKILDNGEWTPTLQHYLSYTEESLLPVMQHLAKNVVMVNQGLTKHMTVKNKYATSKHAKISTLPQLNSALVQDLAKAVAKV
Procedure: as §1
In the FRET technology the activity of the kinase of interest is measured using an appropriate substrate that is labeled with two fluorophores (coumarin and fluorescein). Phosphorylation is determined using a developing reagent comprising a protease that recognizes and cleaves nonphosphorylated peptides. Cleavage will disturb the FRET between the fluorescein and coumarin on the peptide. Uncleaved, phosphorylated peptides maintain the FRET signal. A ratiometric readout of the donor emission over the acceptor emission quantitates the reaction process.
as §3
In a final reaction volume of 10 μl, CDK1/CyclinB (h) (0.2 μg/ml) is incubated with 50 mM Hepes pH 7.5, 10 mM MgCl2, 1 mM EGTA, 0.01% Brij-35, 2 μM Z'lyte Ser/Thr peptide 12 and 10 μM ATP (Invitrogen's FRET assay). After incubation of 60 minutes at room temperature, the reaction is stopped by addition of 5 μL development reagent containing protease mix. After 60 minutes room temperature the development reaction is stopped by adding 5 μl stop solution. The plate is then read in fluorescence plate reader with excitation: 390 nm and dual emission: 460 and 538 nm. Emission ratio is determined to the formula=Emission signal intensity at 460 nm/Emission signal intensity at 538 nm.

Row | IC50 [1] | IC50 [2] | IC50 [3] | IC50 [4] [µM] | SMILES | AuroraB pIC50 [2] | PLK4 pIC50 [3] | GSK3B pIC50 [1] | CDK1 pIC50 [4]
1 | 1.82 µM | > 10 µM | 6.92 µM | > 10 | CCN1CCCCCC(=O)N2CCN(CC2)c2cccc3c2C(=CNc2cccc(c2)S(=O)(=O)N(C)CC1=O)C(=O)N3 (mixture of isomers) [Compound 1] | – | – | – | –
2 | – | – | 3.09 µM | – | CN1CCCC(=O)N2CCN(CC2)c2ncnc3c2C(=CNc2cccc(c2)C1)C(=O)N3 (mixture of isomers) [Compound 11] | – | – | – | –
3 | – | – | > 10 µM | – | O=C1Nc2ncnc3c2C1=CNc1ccc(Cl)c(c1)OCCCCC(=O)N1CCN3CC1 (mixture of isomers) [Compound 12] | – | – | – | –
4 | – | – | – | – | O=C1Nc2ncnc3c2C1=CNc1cc(ccc1Cl)OCCCCCC(=O)N1CCN3CC1 (mixture of isomers) [Compound 19] | <5 | <5 | – | –
5 | – | – | – | – | COc1ccc2cc1OCCCCC(=O)N(C)CCCNc1ncnc3c1C(=CN2)C(=O)N3 (mixture of isomers) [Compound 62] | 7.75 | 6.9 | 7.57 | 6.46
6 | – | – | – | – | CN1CCCNc2ncnc3c2C(=CNc2ccc(Cl)c(c2)OCCCC1=O)C(=O)N3 (mixture of isomers) [Compound 63] | 7.01 | 6.52 | 7.68 | 6.1
7 | – | – | – | – | COc1ccc2cc1CN(C)CCCCCCC(=O)N(C)CCCNc1ncnc3c1C(=CN2)C(=O)N3 (mixture of isomers) [Compound 68] | <5 | 5.74 | 5.04 | <5
8 | – | – | – | – | CN1CCCNc2ncnc3c2C(=CNc2cccc(c2)OCCCCC1=O)C(=O)N3 (mixture of isomers) [Compound 70] | 6.8 | 6.75 | 7.28 | 5.61
9 | – | – | – | – | CN1CCCNc2ncnc3c2C(=CNc2cccc(c2)OCCCCCC1=O)C(=O)N3 (mixture of isomers) [Compound 71] | 6.15 | 6.7 | 7.21 | 5.56
10 | – | > 10 µM | 0.102 µM | – | CN1CC(=O)NCC#Cc2cccc3c2/C(=C/Nc2cccc(c2)S1(=O)=O)C(=O)N3 [Compound 4] | – | – | – | –
11 | 0.372 µM | > 10 µM | 2.95 µM | – | COc1ccc2cc1OCCCCCC(=O)N(C)CCCN(C)c1ncnc3c1/C(=C/N2)C(=O)N3 [Compound 84] | – | – | – | –
12 | 1.1 µM | > 10 µM | 5.01 µM | – | COc1ccc2cc1OCCCCCCC(=O)N(C)CCCN(C)c1ncnc3c1/C(=C/N2)C(=O)N3 [Compound 85] | – | – | – | –
13 | – | > 10 µM | 7.24 µM | > 10 | CN1CCCCC(=O)N(C)CCNc2ncnc3c2/C(=C/Nc2ccc(N4CCOCC4)c(c2)C1)C(=O)N3 [Compound 93] | – | – | – | –
14 | 0.457 µM | > 10 µM | 3.16 µM | – | O=C1COc2cccc(c2)N/C=C2\C(=O)Nc3ncnc(c32)N2CCN(CC2)C[C@@H](Cc2ccccc2)N1 [Compound 101] | – | – | – | –
15 | 0.0776 µM | 6.46 µM | 1.95 µM | – | CN1CCCNc2ncnc3c2/C(=C/Nc2cccc(c2)OCCN(C)[C@H](CO)C1=O)C(=O)N3 [Compound 102] | – | – | – | –
16 | – | 8.71 µM and 7.76 µM | 1.86 µM and 4.17 µM | – | CN1CCCNc2ncnc3c2/C(=C/Nc2cccc(c2)OCCN(C)[C@H](CO)C1=O)C(=O)N3 [Compound 103] | – | – | – | –

Row | IC50 [1] | IC50 [2] | IC50 [3] | IC50 [4] [µM] | SMILES | AuroraB pIC50 [2] | PLK4 pIC50 [3] | GSK3B pIC50 [1] | CDK1 pIC50 [4]
17 | 1.1 µM | 3.39 µM | – | – | CN1CCC(=O)N(C)CCNc2ncnc3c2/C(=C/Nc2ccc(Cl)c(c2)OCC(O)C1)C(=O)N3 (stereo not drawn) [Compound 104] | – | – | – | –
18 | 0.832 µM | 7.41 µM | 5.13 µM | – | COCCN1CCOc2cccc(c2)N/C=C2\C(=O)Nc3ncnc(c32)NCCN(C)C(=O)C1 [Compound 161] | – | – | – | –
19 | 2.51 µM | > 10 µM | 3.09 µM | – | COCCN1CCCOc2cccc(c2)N/C=C2\C(=O)Nc3ncnc(c32)NCCN(C)C(=O)C1 [Compound 162] | – | – | – | –
20 | 0.0631 µM | 6.46 µM | 0.589 µM | – | COCCN1CCOc2cccc(c2)N/C=C2\C(=O)Nc3ncnc(c32)NCCCN(C)C(=O)C1 [Compound 163] | – | – | – | –
21 | 0.759 µM | 5.25 µM | 3.63 µM | – | CN1CCNc2ncnc3c2/C(=C/Nc2cccc(c2)OCCN(C)[C@H](CO)C1=O)C(=O)N3 [Compound 164] | – | – | – | –
22 | 1.02 µM | > 10 µM | 2.19 µM | – | CN1CCNc2ncnc3c2/C(=C/Nc2cccc(c2)OCCN2C[C@H](O)C[C@@H]2C1=O)C(=O)N3 [Compound 166] | – | – | – | –
23 | 0.309 µM | > 10 µM | > 10 µM | – | O=C1Nc2ncnc3c2/C1=C/Nc1cccc(c1)OCCN1C[C@H](O)C[C@@H]1C(=O)N1CCN3CC1 [Compound 171] | – | – | – | –
24 | 0.575 µM | > 10 µM | 4.27 µM | – | CN1CCNc2ncnc3c2/C(=C/Nc2cccc(c2)OCCCN(C)[C@H](CO)C1=O)C(=O)N3 [Compound 173] | – | – | – | –
25 | 1.62 µM and 1.86 µM | > 10 µM | > 10 µM | – | COCCN1CCCOc2cc(ccc2Cl)N/C=C2\C(=O)Nc3ncnc(c32)NCCN(C)C(=O)C1 [Compound 174] | – | – | – | –
26 | 1.58 µM and 1.35 µM | > 10 µM | > 10 µM | – | O=C1Nc2ncnc3c2/C1=C/Nc1cccc(c1)OCCCN1C[C@H](O)C[C@@H]1C(=O)N1CCN3CC1 [Compound 175] | – | – | – | –
27 | 0.0661 µM and 0.0457 µM | 2.51 µM and 6.46 µM | 4.37 µM and 7.24 µM | – | CN1CCCNc2ncnc3c2/C(=C/Nc2ccc(Cl)c(c2)OCCN(C)[C@H](CO)C1=O)C(=O)N3 [Compound 177] | – | – | – | –
28 | 1.55 µM | > 10 µM | > 10 µM | – | CN1CCNc2ncnc3c2/C(=C/Nc2ccc(Cl)c(c2)OCCCN(C)[C@H](CO)C1=O)C(=O)N3 [Compound 190] | – | – | – | –
29 | 0.457 µM | > 10 µM | 5.13 µM | – | CN1CCNc2ncnc3c2/C(=C/Nc2ccc(Cl)c(c2)OCCN2C[C@H](O)C[C@@H]2C1=O)C(=O)N3 [Compound 194] | – | – | – | –
30 | 1.51 µM | > 10 µM | – | – | O=C1Nc2ncnc3c2/C1=C/Nc1ccc(Cl)c(c1)OCCN1C[C@H](O)C[C@@H]1C(=O)N1CCN3CC1 [Compound 196] | – | – | – | –
31 | 4.68 µM | 3.98 µM | – | – | COCCN1CCCOc2cc(ccc2OC)N/C=C2\C(=O)Nc3ncnc(c32)NCCNC(=O)C1 [Compound 202] | – | – | – | –
32 | 0.0933 µM | > 10 µM | – | – | COCCN1CCOc2cc(ccc2Cl)N/C=C2\C(=O)Nc3ncnc(c32)NCCCN(C)C(=O)C1 [Compound 205] | – | – | – | –

Row | SMILES | IC50 [1] | IC50 [2] | IC50 [3] | IC50 [4] [µM] | AuroraB pIC50 [2] | PLK4 pIC50 [3] | GSK3B pIC50 [1] | CDK1 pIC50 [4]
33 | COCCN1CCCOc2cc(ccc2Cl)N/C=C2\C(=O)Nc3ncnc(c32)N2CCN(CC2)C(=O)C1 [Compound 180] | 3.47 µM and 5.37 µM | > 10 µM | > 10 µM | – | – | – | – | –
34 | CN1CCCOc2cc(ccc2Cl)N/C=C2\C(=O)Nc3ncnc(c32)N2CCN(CC2)C(=O)[C@H]1CO [Compound 181] | 2.24 µM | > 10 µM | > 10 µM | – | – | – | – | –
35 | COc1ccc2cc1OCCCN(C)[C@H](CO)C(=O)N1CCN(CC1)c1ncnc3c1/C(=C/N2)C(=O)N3 [Compound 204] | 1.35 µM | > 10 µM | – | – | – | – | – | –
